Experimental findings from patent US20080027098A1, “Derivatives of alpha-phenylthiocarboxylic and alpha-phenyloxy-carboxylic acids useful for the treatment of diseases responding to PPARalpha activation” (SIGMA-TAU INDUSTRIE FARMACEUTICHE RIUNITE S.p.A., priority 2002, published 2008) are described below.

SMILES strings stand for the structures.

The subject of series [1] is high-cholesterol diet-fed CD-1 mice. Kind of series: Hypolipidemic activity in high-cholesterol diet-fed CD-1 mice. It counts as in vivo. As to conditions: 16 days. The protocol:
High-Cholesterol Diet-Fed CD-1 Mice
ST2518, fenofibrate, rosiglitazone and pioglitazone (PPARγ agonists) were administered by gavage, for 16 days, to CD-1 mice fed with high-cholesterol diet, and plasma parameters were evaluated in post-absorptive state.

The test system of series [2] is standard diet-fed c57bl/6j mice. Description: Hypolipidemic activity in standard diet-fed c57bl/6j mice. The conditions noted are these: for Triglycerides (plasma): 15 days, post-absorptive state, control 53.8 ± 4.2. It counts as in vivo. The protocol: Standard Diet-Fed c57bl/6j Mice
ST2518 was evaluated in comparison with fenofibrate also in c57b1/6j mice fed with standard diet (Table 5).

In series [3] the test system is db/db mice. Description: Increase in HDL-cholesterol levels in db/db mice. It counts as in vivo. As to conditions: further experiment, oral twice daily 14 days, dose equimolar to 25 mg/kg of ST2195, 8 hours after last treatment. The protocol:
Increase in HDL-Cholesterol Levels in db/db Mice
In this experiment db/db mice were used in which PPARα expression is above normal (Memon et al., Endocrinology 2000, 4021-4031) and HDL-cholesterol levels are substantially elevated (Silver et al., J Biol Chem 1999, 274: 4140-4146).
The C57BL[KsJ db/db mice were acclimatised for one week in standard conditions (22±2° C.; 55±15% humidity; 15-20 air changes/hour; 12 hours light/darkness cycle with light from 7.00 a.m. to 7 p.m.) with a standard 4 RF21 diet (Mucedola). Blood samples were taken in post-absorption conditions (fasting from 8.30 a.m. to 4.30 p.m.) from the caudal vein with the aid of a Jelco 22G catheter (Johnson and Johnson). Glucose, insulin, triglyceride, cholesterol, free fatty acid and urea levels were checked in plasma for a homogeneous distribution of the mice in the treatment groups.
At the beginning of treatment the animals' body weight was checked and arrangements were made to monitor their water and feed consumption. […]
The compound tested, obtained as described in example 4 (ST 1929) was administered at the dose of 24 mg/kg in 10 ml/kg of vehicle (1% CMC containing Tween 80 0.5% in deionized H2O).
The other compounds tested were also administered at a dose equivalent to that in example 4.
Ciprofibrate, a known PPARα agonist (Varanasi et al., J Biol Chem 1996, 271: 2147-2155; Latruffe et al. Cell Biochem Biophys 2000, 32 Spring: 213-220) was administered at the dose of 20 mg/kg (Dwivedi et al., Toxicol Pathol 1989, 17: 16-26; Qi et al., Proc Natl Acad Sci USA 1999, 96: 1585-1590).
The animals were sacrificed (by decapitation) in conditions of post-absorption (fasting from 9.30 a.m. to 4.30 p.m.) 7 hours after the last treatment. The levels of a number of important lipid and carbohydrate metabolism parameters were determined in the serum.
The HDL-cholesterol levels were measured by treating the serum with phosphotungstic-acid-based precipitating reagent (ABX Diagnostics) which removes the chylomicrons, very low density and low density lipoproteins and determining the HDL-cholesterol levels in the supernatant with the aid of the Cholesterol Kit (ABX Diagnostics) and the Cobas Mira S Autoanalyzer (Roche).
In a further experiment, where the above reported ST2195 was used as reference compound, db/db mice were treated orally twice daily (8.30 a.m. and 6.30 p.m.) for 14 days with the test items (equimolar to 25 mg/kg of ST2 195) giving the following results reported in Table 3: […]

Series [4] concerns hAPO A I transgenic mice. Description: Plasma lipid parameters in hAPO A I transgenic mice. The series is classed as in vivo. As to conditions: 16 days. The protocol: ST2518, fenofibrate and rosiglitazone were administered by gavage for 16 days, and plasma (p) parameters were evaluated in post-absorptive state.

As usually defined, the melting point is the temperature of the solid-liquid transition. Compound `CC(C)(Sc1cccc(OCCc2ccc(Cl)cc2)c1)C(=O)O` [ST2518, 2-[3-[2-(4-chlorophenyl)ethoxy]phenylthio]-2-methylpropanoic acid] registered a melting point of 105 to 106 °C. In series [1] (25 mg/Kg/bid by gavage, post-absorptive state, control 350 ± 28), the P-Cholesterol is 200 ± 29 Δ mg/dL. The “effect on plasma-cholesterol and triglyceride levels (in words)” value in series [1] (gavage, high-cholesterol diet) is “significantly reduced plasma-cholesterol and triglyceride levels”. The “Triglycerides (plasma)” value in series [2] (5 mg/kg/bid by gavage) is recorded as 29.4 ± 3.0 Δ mg/dl. Moreover, the “Triglycerides (plasma)” value in series [2] (15 mg/kg/bid by gavage) was 29.5 ± 3.4 Δ mg/dl. For the same compound, the “Triglycerides (plasma)” value in series [2] (25 mg/kg/bid by gavage) was 24.6 ± 2.0 Δ mg/dl. Besides, in series [2] (treatment for 15 days, standard diet), the “effect on plasma triglyceride levels (in words)” value was “significantly reduced plasma triglyceride levels to a higher extent than fenofibrate and muraglitazar”. Besides, in series [3], the “Increase in HDL-cholesterol levels (%)” value is given as “+46Δ %”. Also, the P-triglycerides in series [4] (25 mg/kg/bid by gavage, post-absorptive state, control 75 ± 6) is on record as 36 ± 3 δ mg/dl. For the same compound, the P-hdl-cholesterol in series [4] (25 mg/kg/bid by gavage, post-absorptive state, control 163 ± 6) is 252 ± 18 δ mg/dl. In series [4] (gavage), the “effect on HDL-cholesterol (in words)” value is “increased HDL-cholesterol more than fenofibrate” and the “effect on triglyceride levels (in words)” value was “effective in reducing triglyceride levels”.
